This experiment addresses farnesyl diphosphate synthase (Leishmania major). Kind of experiment: Inhibitory activity against Leishmania major Farnesyl-diphosphatesynthase (FPP synthase).

pIC50: −log10 of the molar value. Bounds are passed on as bounds.

The molecule `Cc1cc(C)nc(NC(P(=O)(O)O)P(=O)(O)O)c1` [(4,6-dimethyl-2-pyridinyl)-aminomethylene-1,1-bisphosphonate] showed a pIC50 below 4.00.
As for `O=P(O)(O)C(Nc1ccc(Cl)nc1)P(=O)(O)O` [[(6-Chloro-pyridin-3-ylamino)-phosphono-methyl]-phosphonic acid], the figure is below 4.00.

Source of the values: BindingDB's records for doi:10.1021/jm030084x (University of Illinois At Urbana-Champaign, 2003).
